Test results reported in paper PMC7203344, “Sirtuin 1 Inhibiting Thiocyanates (S1th)—A New Class of Isotype Selective Inhibitors of NAD^+ Dependent Lysine Deacetylases” (Frontiers in Oncology, 2020).
Several values for one entry are separate records, joined by “and”; a condition that tells them apart may be missing. Identical values can stand only once. Entries after “also recorded” stand apart in the source; their conditions may differ. Blank lines part the entries; values can stand above or below the compound they belong to.

How the values were obtained:
[1] = target: T1, Sirt1 (Homo sapiens, UniProt Q96EB6); experiment: Fluorescent thermal shift assay (FTSA), Sirt1; type: binding
T1 construct: made in house; host or cells: E. coli BL21 Star (DE3)
T1 sequence (Q96EB6 134-747): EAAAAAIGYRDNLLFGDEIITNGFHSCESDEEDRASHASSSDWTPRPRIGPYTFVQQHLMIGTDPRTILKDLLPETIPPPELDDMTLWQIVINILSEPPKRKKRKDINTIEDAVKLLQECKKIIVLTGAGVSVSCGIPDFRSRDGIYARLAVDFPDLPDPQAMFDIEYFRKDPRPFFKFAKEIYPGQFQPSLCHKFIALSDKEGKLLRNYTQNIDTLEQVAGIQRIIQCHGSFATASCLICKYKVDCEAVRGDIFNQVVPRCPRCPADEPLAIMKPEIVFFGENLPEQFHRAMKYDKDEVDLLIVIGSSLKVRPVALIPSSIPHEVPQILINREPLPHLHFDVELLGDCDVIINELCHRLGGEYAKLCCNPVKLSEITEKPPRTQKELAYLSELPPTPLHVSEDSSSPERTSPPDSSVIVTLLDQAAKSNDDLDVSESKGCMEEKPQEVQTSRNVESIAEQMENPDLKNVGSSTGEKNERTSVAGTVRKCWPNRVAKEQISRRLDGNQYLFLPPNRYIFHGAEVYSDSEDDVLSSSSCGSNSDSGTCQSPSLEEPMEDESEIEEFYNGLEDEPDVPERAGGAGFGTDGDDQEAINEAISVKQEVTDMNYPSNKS
Protocol: In a 96-well plate (Hard-Shell® PCR-plates, 96-well, thin-wall, BioRAD, USA) 14 μL Sirt1_134−747 in assay buffer (0.3 mg/mL final assay concentration, 50 mM Tris/HCl, 137 mM NaCl, 2.7 mM KCl, 1 mM MgCL2, pH 8.0) were mixed with 1 μL inhibitor in DMSO (100 μM) or DMSO [final assay concentration 5% (v/v)] as a control and 5 μL SyproOrange (1:100 in assay buffer). The fluorescence intensity was monitored during a constant increase of temperature from 20 to 95°C, 1 K per 20 s, using a real-time-PCR-machine (C1000 TouchTM Thermal Cycler, CFX96TM Real-Time System, BioRAD, USA). Melting temperatures were calculated via GraphPad Prism according to a published procedure ([60]).

[2] = target: T1, Sirt1; experiment: Homogeneous ZMAL-based fluorescence assay, Sirt1; type: biochemical
Protocol: (§1) Recombinant human Sirt5_37−310 was purchased readily in Tris Buffer [25 mM Tris, 100 mM NaCl, 5 mM DTT, 10% glycerol (v/v)] from Enzo Life Sciences (NY, USA). Human Sirt3_118−395 was expressed and purified as described previously ([54]). For expression of human Sirt1_134−747 and Sirt2_56−356 chemically competent cells of E. coli BL21 Star (DE3) were transformed with the expression vectors pET30S-hSirt1_134−747 or pET30S-hSirt2_56−356. Bacteria were grown at 37°C in 2×YT medium supplemented with 50 μg·mL^−1 of kanamycin to an OD600 of 0.6. Then isopropyl-β-D-1-thiogalactopyranoside (IPTG) was added to a final concentration of 1 mM to induce gene expression. After further cultivation at 20°C for 12 h, the cells were harvested by centrifugation for 15 min at 5,000 g. The cells were resuspended in lysis buffer [100 mM Tris/HCl buffer at pH 8.0, 150 mM NaCl and 10% (v/v) glycerol] and disrupted by ultrasonication (Branson Digital Sonifier 250) at 70% amplitude for 10 min (3 s working, 10 s pause). The crude extract was cleared by centrifugation at 100,000 g for 1 h, and the supernatant was loaded onto a Strep-Tactin Superflow cartridge (5 ml bed volume, IBA Lifescience, Germany). Target proteins were eluted with lysis buffer containing 5 mM D-Desthiobiotin (IBA Lifescience, Germany) and further separated by size-exclusion chromatography (Superdex S200 26/60, GE Healthcare, IL, USA) equilibrated in Tris/HCl buffer (20 mM, 150 mM NaCl, pH 8.0). Pure protein was concentrated by ultrafiltration, flash-frozen in liquid nitrogen and stored at −80°C until further use. Identity as well as purity were verified by SDS-PAGE ([55]) and protein concentration was determined by the bicinchoninic acid (BCA) method, using bovine serum albumin (BSA) as a standard ([56]). Deacetylase activity was confirmed to be NAD^+-dependent and could be inhibited with the physiological sirtuin inhibitor nicotinamide.
(§2) All compounds were tested in the trypsin-coupled high-throughput ZMAL-assay in black 96-well plates (OptiPlateTM−96F, black, 96 well, Pinch bar design, PerkinElmer, USA), using ZMAL (Z-Lys(acetyl)-AMC) as a substrate ([57]). Sirt1_134−747, Sirt2_56−356, and Sirt3_118−395 were mixed with 5 μL substrate (10.5 μM final assay concentration, diluted from a […] stock in DMSO) and 3 μL Inhibitor in DMSO at various concentrations or DMSO as a control [final DMSO concentration 5% (v/v)]. The mixture was supplemented with assay buffer (50 mM Tris/HCl, 137 mM NaCl, 2.7 mM KCl, 1 mM MgCL2, pH 8.0) to a total volume of 55 μL. Enzyme concentration was adjusted to get a final conversion of 20–30%. Addition of 5 μL NAD^+ (6 mM in assay buffer, final assay concentration of 500 μM) initiated the catalytic reaction and the plates were incubated at 37°C for 4 h with agitation at 140 rpm. The catalytic reaction was stopped by addition of 60 μL stop solution [50 mM Tris, 100 mM NaCl, 6.7% (V/V) DMSO, 5.5 U/μL trypsin, 8 μM nicotinamide, pH 8.0]. The plate was again incubated at 37°C and 140 rpm for 20 min to release free AMC from the deacetylated substrate by trypsin digestion. Afterwards, fluorescence intensity was measured in a microplate reader (λEx = 390 nm, λEm = 460 nm, BMG POLARstar Optima, BMG Labtech, Germany). An enzyme-free blank control and a 100% conversion control containing AMC instead of ZMAL were measured in addition. Inhibition was calculated in % in relation to a DMSO control after blank signal subtraction and IC50 values were determined using a non-linear regression to fit the dose-response curve with OriginPro 9G (OriginLab, USA). Pre-tests as well as IC50 determination was carried out at least twice in duplicates.

[3] = target: T2, human Sirt2 (Homo sapiens, UniProt Q8IXJ6); experiment: Homogeneous ZMAL-based fluorescence assay, Sirt2; type: biochemical
T2 construct: made in house; host or cells: E. coli BL21 Star (DE3)
T2 sequence (Q8IXJ6 56-356): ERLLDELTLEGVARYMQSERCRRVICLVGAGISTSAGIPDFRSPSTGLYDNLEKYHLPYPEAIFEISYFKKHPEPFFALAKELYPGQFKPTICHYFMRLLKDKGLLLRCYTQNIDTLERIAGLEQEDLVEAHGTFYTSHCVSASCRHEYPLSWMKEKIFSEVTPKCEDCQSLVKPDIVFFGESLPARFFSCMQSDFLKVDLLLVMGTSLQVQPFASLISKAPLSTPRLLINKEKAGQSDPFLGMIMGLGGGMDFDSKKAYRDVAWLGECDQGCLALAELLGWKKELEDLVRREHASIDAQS
Protocol: as §1, §2

[4] = target: T3, human Sirt3 (Homo sapiens, UniProt Q9NTG7); experiment: Homogeneous ZMAL-based fluorescence assay, Sirt3; type: biochemical
T3 construct: Human Sirt3_118−395 was expressed and purified as described previously; made in house
T3 sequence (Q9NTG7 118-395): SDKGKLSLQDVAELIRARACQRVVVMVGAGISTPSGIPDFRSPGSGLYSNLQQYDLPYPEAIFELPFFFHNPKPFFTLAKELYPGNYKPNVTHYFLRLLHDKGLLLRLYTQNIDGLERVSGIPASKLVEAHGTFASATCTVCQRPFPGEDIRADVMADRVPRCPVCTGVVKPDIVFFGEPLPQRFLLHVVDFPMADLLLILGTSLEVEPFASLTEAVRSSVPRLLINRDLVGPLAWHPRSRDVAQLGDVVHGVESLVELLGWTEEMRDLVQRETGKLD
Protocol: as §1, §2

[5] = test system: γH2AX/H2AX levels in MEF cells; experiment: γH2AX level determination by western blot; type: cell-based, mouse; settings: 48 h, EX-527 10 μM, S1th 10 30 μM, S1th 12 20 μM, S1th 13 12 μM, SirReal2 30 μM
Protocol: Sirt1 WT and KO MEFS cells were treated with 10 μM EX-527, 12 μM S1th 13 (6), 20 μM S1th 12 (5), 30 μM S1th 10 (7) and 30 μM SirReal2 [Sirt2 inhibitor, synthesized according to ([62])] for 48 h. Oxidative stress was induced using 10 μM Camptothecin 2 h. Whole-cell extracts were performed according to the Dignam protocol ([63]). Primary antibodies used for the western blot were anti-H2AX and anti-γH2AX (ab11175 and ab2893 resp., Abcam, UK). Densiometric analysis of the western blots was performed with Quantity One software (Bio-Rad Laboratories, Inc., USA).

[6] = 2nd round of in vitro screening

Compound: NC(=O)c1ccc[n+]([C@@H]2O[C@H](COP(=O)([O-])OP(=O)(O)OC[C@H]3O[C@@H](n4cnc5c(N)ncnc54)[C@H](O)[C@@H]3O)[C@@H](O)[C@H]2O)c1 [NAD^+]
effect on Tm of Sirt1 (in words) [1]: slightly increased

Compound: O=C(Nc1ccccc1-c1cn2c(CN3CCNCC3)csc2n1)c1cnc2ccccc2n1 [SRT1720]
effect on Tm of Sirt1 (in words) [1]: barely effected; also recorded: very small shift or no shift at all

Compound: Cc1cc(C)nc(SCC(=O)Nc2ncc(Cc3cccc4ccccc34)s2)n1 [SirReal2, reference compound]
γH2AX/H2AX levels without Camptothecin [5]: does not affect

Compound: adenosine diphosphate ribose [ADPR]
effect on Tm of Sirt1 (in words) [1]: strongly increased
stabilization (increase of Tm) of Sirt1 [1]: up to 4 K

The next lines start with the values.

effect on Tm of Sirt1 (in words) [1]: no reasonable melting curve is obtained
Compound: O=c1c2cccnc2sn1Cc1ccc(C(F)(F)F)cc1 [PU141]

inhibition at 50 µM ([2]; 50 µM, primary screen): 82%
IC50 [2, 6]: 13 ± 0.6 µM
inhibition at 50 µM [3, 6]: 23%
inhibition at 50 µM [4, 6]: < 10%
Compound: CCCc1cc(=O)[nH]c(SCC(=O)Nc2cccc(SC#N)c2)n1 [S1th 1]

IC50 ([2]; 3rd round): 6.34 µM and 6.3 µM
inhibition at 50 µM ([3]; 3rd round): < 10%
inhibition at 50 µM ([4]; 3rd round): < 10%
Compound: N#CSc1cccc(NC(=O)c2ccc3c(c2)OCCO3)c1 [S1th 7]
